According to patent publication US10906909B2, “Treatment of cognitive and mood symptoms in neurodegenerative and neuropsychiatric disorders with ALPHA5-containing GABAA receptor agonists” (UWM Research Foundation, Inc., priority 2016, dated 2021):
“Also recorded” adds a separate entry of the source.

Assays:
[1] = tested on: Female Swiss Webster mice; test: Rotarod sensorimotor / locomotor coordination; assay type: in vivo, mouse; details: 40 mg/kg oral gavage; 15 rpm, 3 min; 10, 30, 60 min after dosing
Experimental: Female Swiss Webster mice (10 weeks of age) from Charles River Laboratory, WIL, MA were used for the experiments. The animals were housed under specific pathogen-free conditions, under standard conditions of humidity, temperature and a controlled 12 h light and dark cycle and had free access to food and water. The sensorimotor rotarod test was carried out 10, 30 and 60 minutes after the injection. Mice were tested on a rotarod at 15 rpm for maximum 3 min and the time of fall was recorded. Falling before the 3 minutes period of testing assesses of locomotor coordination impairment induced by the compound.
Mice (N=10/group) received a single administration via oral gavage of test compound (40 mg/kg), diazepam (5 mg/kg), or vehicle (2% polyethylene glycol, 2.5% hydroxypropylmethyl cellulose solution).

[2] = tested on: HEPG2; test: Cytotoxicity assay (CellTiter-Glo), HEPG2; assay type: cell-based, human; details: 48 hours incubation
Experimental: Human liver hepatocellular carcinoma (HEPG2) and human embryonic kidney 293 (HEK293) cell lines were purchased (ATCC) and cultured in 75 cm2 flasks (CellStar). Cells were grown in DMEM/High Glucose (Hyclone, #SH3024301) media to which non-essential amino acids (Hyclone, #SH30238.01), 10 mM HEPES (Hyclone, #SH302237.01), 5×106 units of penicillin and streptomycin (Hyclone, #SV30010), and 10% of heat inactivated fetal bovine serum (Gibco, #10082147) were added. Cells were harvested using 0.05% Trypsin (Hyclone, #SH3023601), washed with PBS, and dispensed into sterile white, optical bottom 384-well plates (NUNC, #142762). After three hours, small molecule solutions were transferred with a Tecan Freedom EVO liquid handling system equipped with a 100 nL pin tool (V&P Scientific). The controls (E)-10-(bromotriphenylphosphoranyl)decyl 4-(4-(tert-butyl)phenyl)-4-oxobut-2-enoate (400 μM in DMSO, positive control) and DMSO (negative control). The cells were incubated for 48 hours followed by the addition of CellTiter-Glo™, a luminescence-based cell viability assay (Promega, Madison, Wis.). All luminescence readings were performed on a Tecan Infinite M1000 plate reader. The assay was carried out in quadruplet with three independent runs. The data was normalized to the controls and analyzed by nonlinear regression (GraphPad Prism).

[3] = tested on: mice; test: Home cage locomotor activity in mice; assay type: in vivo, mouse; details: vs vehicle
Experimental: Mice were placed in a clean cage, similar to their home-cage (28.2×17.1 cm), without bedding and lid to allow video recording from the top. Tacking was performed and distance travelled (30 min session) was analyzed using ANY-Maze™ tracking software (version 499z) to assess the locomotor activity in a home-cage environment. Animals received a single dose of compound or vehicle solution 1 hour before testing.
Drug preparation and administration: All drugs were diluted in a vehicle solution containing 85% H2O, 14% propylene glycol (Sigma Aldrich) and 1% Tween 80 (Sigma Aldrich). Working solutions were prepared at a concentration of 20 mg/mL and administered i.p. adjusted to the body weight of each animal. Doses used were either 1, 5 or 10 mg/kg. For all locomotor activity experiments, animals were acutely injected i.p. with vehicle or αPAM, 1 hour before the beginning of the test.

[4] = biological target: T1, alpha 5 subunit GABAA receptor (Rattus norvegicus, UniProt P18508+P19969); test: Electrophysiology, whole-cell patch clamp in transfected HEK-293T cells; assay type: cell-based; details: for percent of response to GABA: 1 μM compound, HEK-293T cells transfected with alpha 5 subunit; for relative size of response to GABA among the four compounds: 1 μM, alpha 5, FIG. 26
T1 construct: Full-length cDNAs for GABAA receptor subtypes; expressed in transfected cells; host or cells: HEK-293T (GenHunter, Nashville, Tenn.), transient calcium phosphate transfection
From the text: Transfection of Mammalian Cells and Electrophysiological Recordings. Full-length cDNAs for GABAA receptor subtypes (generously provided by Dr. Robert Macdonald, Vanderbilt University and Dr. David Weiss, University of Texas Health Science Center, San Antonio, Tex.) in mammalian expression vectors were transfected into the human embryonic kidney cell line HEK-293T (GenHunter, Nashville, Tenn.) (Chestnut et al, 1996, J. Immunol. Methods 193, 17-27). All subtypes were rat clones except for α2, which was a human clone. Cells were maintained in Dulbecco's modified Eagle's medium (DMEM) plus 10% fetal bovine serum, 100 IU/mL penicillin, and 100 μg/mL streptomycin.
HEK-293T cells were transiently transfected using calcium phosphate precipitation. Plasmids encoding GABAA receptor subtype cDNAs were added to the cells in 1:1:1 ratios (α:β:γ) of 2 μg each.31 For identification of positively transfected cells, 1 μg of the plasmid pHook-1 (Invitrogen Life Technologies, Grand Island N.Y.) containing cDNA encoding the surface antibody sFv was also transfected into the cells.11 Following a 4-6 h incubation at 3% CO2, the cells were treated with a 15% glycerol solution in BBS buffer (50 mM BES(N,N-bis[2-hydroxyethyl]-2-aminoethanesulfonic acid), 280 mM NaCl, 1.5 mM Na2HPO4) for 30 s. The selection procedure for pHook expression was performed 18-52 h later. The cells were passaged and mixed for 30-60 min with 3-5 μL of magnetic beads coated with antigen for the pHook antibody (approximately 6×105 beads).11 Bead-coated cells were isolated using a magnetic stand. The selected cells were resuspended into supplemented DMEM, plated onto glass coverslips treated with poly L-lysine and collagen, and used for recordings the next day.
Cells were patch-clamped at −50 mV in the whole-cell recording configuration. The bath solution consisted of (in mM): 142 NaCl, 8.1 KCl, 6 MgCl2, 1 CaCl2), and 10 HEPES (4-(2-hydroxyethyl)-1-piperazineethanesulfonic acid) with pH=7.4 and osmolarity adjusted to 295-305 mOsm. Recording electrodes were filled with a solution of (in mM) 153 KCl, 1 MgCl2, 5 K-EGTA (ethylene glycol-bis(β-aminoethyl ether N,N,N′N′-tetraacetate), and 10 HEPES with pH=7.4 and osmolarity adjusted to 295-305 mOsm. GABA was diluted into the bath solution from freshly made or frozen stocks in water. Compounds were dissolved in DMSO and diluted into bath solution with the highest DMSO level applied to cells of 0.01%. Patch pipettes were pulled from borosilicate glass (World Precision Instruments, Sarasota, Fla.) on a two-stage puller (Narishige, Japan) to a resistance of 5-10 MO. Solutions containing GABA or GABA+ compounds were applied to cells for 5 s. using a 3-barrelled solution delivery device controlled by a computer-driven stepper motor (SF-77B, Harvard Apparatus, Holliston, Mass., open tip exchange time of <50 ms). There was a continuous flow of external solution through the chamber. Currents were recorded with an Axon 200B (Foster City, Calif.) patch clamp amplifier.
Whole-cell currents were analyzed using the programs Clampfit (pClamp9 suite, Axon Instruments, Foster City, Calif.) and Prism (Graphpad, San Diego, Calif.). Concentration-response data was fit with a four-parameter logistic equation (current=[minimum current+(maximum current−minimum current)]/1+(10(logEC50−log[modulator])n) where n represents the Hill number. All fits were made to normalized data with current expressed as a percentage of the response to GABA alone for each cell.

[5] = 1 mg/kg i.p. 60 min before testing
[6] = 5 mg/kg i.p. 60 min before testing
[7] = 10 mg/kg i.p. 60 min before testing

T1 sequence (P19969 32-464 limits assumed): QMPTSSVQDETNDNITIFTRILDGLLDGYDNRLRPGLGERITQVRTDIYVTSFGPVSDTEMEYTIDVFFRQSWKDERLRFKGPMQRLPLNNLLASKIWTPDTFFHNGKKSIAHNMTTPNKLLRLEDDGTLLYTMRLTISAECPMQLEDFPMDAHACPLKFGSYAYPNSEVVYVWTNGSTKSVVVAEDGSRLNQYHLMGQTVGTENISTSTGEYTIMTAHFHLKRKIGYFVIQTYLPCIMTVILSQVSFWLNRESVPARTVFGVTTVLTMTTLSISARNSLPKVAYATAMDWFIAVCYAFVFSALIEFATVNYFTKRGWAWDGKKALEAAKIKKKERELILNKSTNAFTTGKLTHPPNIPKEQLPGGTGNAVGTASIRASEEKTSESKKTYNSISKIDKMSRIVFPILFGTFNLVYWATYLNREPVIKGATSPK
T1 sequence (P63079 26-473 partner): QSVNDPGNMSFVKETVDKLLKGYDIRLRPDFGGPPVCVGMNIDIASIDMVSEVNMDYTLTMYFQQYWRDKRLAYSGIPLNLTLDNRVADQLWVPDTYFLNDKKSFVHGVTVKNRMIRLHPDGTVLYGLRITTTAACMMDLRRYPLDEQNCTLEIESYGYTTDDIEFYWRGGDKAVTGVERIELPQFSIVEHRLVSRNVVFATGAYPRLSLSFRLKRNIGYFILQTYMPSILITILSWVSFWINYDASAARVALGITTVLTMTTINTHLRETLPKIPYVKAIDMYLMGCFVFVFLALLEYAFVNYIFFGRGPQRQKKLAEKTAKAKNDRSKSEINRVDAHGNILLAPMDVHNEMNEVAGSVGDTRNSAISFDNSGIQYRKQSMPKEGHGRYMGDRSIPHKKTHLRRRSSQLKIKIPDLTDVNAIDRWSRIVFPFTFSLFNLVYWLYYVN
T1 sequence (P18508 39-466): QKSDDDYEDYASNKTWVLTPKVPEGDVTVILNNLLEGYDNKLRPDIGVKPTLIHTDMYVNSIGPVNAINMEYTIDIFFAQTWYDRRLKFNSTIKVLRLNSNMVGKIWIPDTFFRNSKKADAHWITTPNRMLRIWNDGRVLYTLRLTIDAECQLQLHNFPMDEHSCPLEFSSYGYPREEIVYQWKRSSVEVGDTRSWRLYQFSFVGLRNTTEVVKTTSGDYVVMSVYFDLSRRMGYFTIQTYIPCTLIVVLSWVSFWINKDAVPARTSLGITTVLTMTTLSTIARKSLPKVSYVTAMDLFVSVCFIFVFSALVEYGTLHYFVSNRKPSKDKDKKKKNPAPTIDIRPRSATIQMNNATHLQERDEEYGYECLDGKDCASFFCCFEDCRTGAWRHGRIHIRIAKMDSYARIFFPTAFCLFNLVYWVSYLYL

C#Cc1ccc2c(c1)C(c1ccccc1F)=N[C@@H](C)c1c(C(=O)N(C)C)ncn1-2 [GL-I-54, (S)-8-ethynyl-6-(2-fluorophenyl)-N,N,4-trimethyl-4H-benzo[f]imidazo[1,5-a][1,4]diazepine-3-carboxamide]
sensorimotor impairment on rotarod (time of fall) [1]: most severe motor impairment
HEPG2 LD50 [2]: >400 µM

C#Cc1ccc2c(c1)C(c1ccccc1F)=N[C@H](C)c1c(C(=O)N(C)C)ncn1-2 [GL-II-73, (R)-8-ethynyl-6-(2-fluorophenyl)-N,N,4-trimethyl-4H-benzo[f]imidazo[1,5-a][1,4]diazepine-3-carboxam]
locomotor activity (distance travelled, 30 min session) [3, 5]: no significant effect; also recorded: no effect on locomotor activity
locomotor activity (distance travelled, 30 min session) [3, 6]: significant increase in locomotion; also recorded: significant increase in distance traveled
locomotor activity (distance travelled, 30 min session) [3, 7]: significant increase in locomotion; also recorded: significant increase in distance traveled
percent of response to GABA [4]: increased in the percent of response to GABA
relative size of response to GABA among the four compounds [4]: greatest response
sensorimotor impairment on rotarod (time of fall) [1]: no sensorimotor impairment
HEPG2 LD50 [2]: >400 µM

C#Cc1ccc2c(c1)C(c1ccccc1F)=N[C@H](C)c1c(C(=O)NCC)ncn1-2 [GL-II-74, (R)—N-ethyl-8-ethynyl-6-(2-fluorophenyl)-4-methyl-4H-benzo[f]imidazo[1,5-a][1,4]diazepine-3-carboxamide]
locomotor activity (distance travelled, 30 min session) [3, 5]: no significant effect; also recorded: no effect on locomotor activity
locomotor activity (distance travelled, 30 min session) [3, 6]: no significant effect; also recorded: no effect on locomotor activity
locomotor activity (distance travelled, 30 min session) [3, 7]: significant increase in locomotion; also recorded: significant increase in distance traveled
percent of response to GABA [4]: increased in the percent of response to GABA
relative size of response to GABA among the four compounds [4]: greatest response
sensorimotor impairment on rotarod (time of fall) [1]: no sensorimotor impairment

C#Cc1ccc2c(c1)C(c1ccccc1F)=N[C@H](C)c1c(C(=O)NC3CC3)ncn1-2 [GL-II-75, (R)—N-cyclopropyl-8-ethynyl-6-(2-fluorophenyl)-4-methyl-4H-benzo[f]imidazo[1,5-a][1,4]diazepine-3-carboxamide]
locomotor activity (distance travelled, 30 min session) [3, 5]: significant increase in locomotion; also recorded: significant increase in distance traveled
locomotor activity (distance travelled, 30 min session) [3, 6]: no significant effect; also recorded: no effect on locomotor activity
locomotor activity (distance travelled, 30 min session) [3, 7]: significant increase in locomotion; also recorded: significant increase in distance traveled
percent of response to GABA [4]: increased in the percent of response to GABA
relative size of response to GABA among the four compounds [4]: greatest response

C#Cc1ccc2c(c1)C(c1ccccc1F)=N[C@H](C)c1c(C(=O)N3CCCC3)ncn1-2 [GL-II-76, (R)-(8-ethynyl-6-(2-fluorophenyl)-4-methyl-4H-benzo[f]imidazo[1,5-a][1,4]diazepin-3-yl)(pyrrolidin-1-yl)methanone]
percent of response to GABA [4]: increased in the percent of response to GABA
sensorimotor impairment on rotarod (time of fall) [1]: no sensorimotor impairment
HEPG2 LD50 [2]: >400 µM

C#Cc1ccc2c(c1)C(c1ccccc1F)=N[C@H](C)c1c(C(=O)NC)ncn1-2 [MP-III-022]
locomotor activity (distance travelled, 30 min session) ([3]; i.p. 60 min before testing, dose not given): no significant difference; also recorded: no effect
HEPG2 LD50 [2]: >200 µM
